According to patent US10815224B2, “Monocyclic heteroaryl substituted compounds” (Bristol-Myers Squibb Company, priority 2016, dated 2020):

Target: T1, PAR4 (Homo sapiens, UniProt Q96RI0)
T1 construct: expressed in transfected cells; host or cells: HEK293 PAR4 Clone 1.2A (BMS Arctic ID 383940)
T1 sequence (Q96RI0 18-385): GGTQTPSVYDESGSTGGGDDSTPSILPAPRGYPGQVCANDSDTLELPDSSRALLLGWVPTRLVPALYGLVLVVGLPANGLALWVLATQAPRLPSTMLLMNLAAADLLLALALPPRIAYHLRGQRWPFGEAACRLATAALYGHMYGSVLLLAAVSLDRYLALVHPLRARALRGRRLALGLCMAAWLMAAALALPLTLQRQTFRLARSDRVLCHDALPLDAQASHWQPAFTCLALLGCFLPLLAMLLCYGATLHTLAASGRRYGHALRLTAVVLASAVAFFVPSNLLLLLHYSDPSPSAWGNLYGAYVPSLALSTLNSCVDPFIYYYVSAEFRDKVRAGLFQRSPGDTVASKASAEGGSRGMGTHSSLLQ
Assay: PAR4 FLIPR assay: calcium mobilization in PAR4-expressing HEK293 cells
Type: cell-based
From the text: The FLIPR assay is an exemplary in vitro assay for measuring the activity of the PAR4 antagonists of the present invention. In this assay, intracellular calcium mobilization is induced in PAR4 expressing cells by a PAR4 agonist and calcium mobilization is monitored.
HEK293 cells stably expressing PAR4 were generated by a standard method of transfection of human PAR4 (F2R23) cDNA expression vector and selected based on PAR4 protein expression or mRNA expression. […] Therefore, the same cells were also used to determine selectivity against PAR1 and agonist activity for both receptors.
FLIPR-based calcium mobilization assay in HEK293 cells was used to measure PAR4 antagonism, agonism, and selectivity against PAR1. […] Counter screens for agonist activity and PAR1 antagonist activity were also performed. […] Cells were plated overnight prior to the experiment in a black 384-well Purecoat Amine clear bottom plate (Becton Dickinson Biosciences, San Jose, Calif.) at 10,000 cells/well in 30 μL growth medium and incubated in a humidified chamber at 37° C. with 5% CO2 overnight. Prior to compound addition, the cell medium was replaced with 40 μL of 1× calcium and magnesium-containing Hank's Balanced Saline Solution (HBSS) (with 20 mM HEPES) and 1:1000 diluted fluorescent calcium indicator (Codex Biosolutions, Gaithersburg, Md.). After a 30 minute incubation period at 37° C., and a further 30 minute incubation and equilibration period at room temperature, 20 μL test compound (diluted in 1×HBSS buffer) was added at various concentrations at 0.17% dimethyl sulfoxide (DMSO) final concentration. Changes in fluorescence intensity were measured using a Functional Drug Screening System (FDSS, Hamamatsu, Japan) to determine agonist activities. The cells were then incubated for 30 minutes at room temperature followed by addition of 20 μL of agonist peptide for antagonist activity measurement. […] Compound potency was derived from 11-point concentration-response curves.

Row | SMILES | IC50 [nM]
1 | COc1cnc2c(-c3cc(-c4ccccc4)no3)cc(C)cc2n1 [Example 1, 5-(2-methoxy-7-methylquinoxalin-5-yl)-3-phenylisoxazole] | 80
2 | Cc1cc(-c2cnn(-c3ccccc3)c2)c2ncc(OC(F)F)nc2c1 [Example 2, 2-(difluoromethoxy)-7-methyl-5-(1-phenyl-1H-pyrazol-4-yl)quinoxaline] | 790
3 | Cc1cc(-c2cnc(-c3ccccc3)s2)c2ncc(OC(F)F)nc2c1 [Example 3, 5-(2-(difluoromethoxy)-7-methylquinoxalin-5-yl)-2-phenylthiazole] | 330
4 | Cc1cc(-c2ncc(C)s2)c2ncc(OC(F)F)nc2c1 [Example 4, 2-(2-(difluoromethoxy)-7-methylquinoxalin-5-yl)-5-methylthiazole] | 520
5 | C=Cc1csc(-c2cc(C)cc3nc(OC(F)F)cnc23)n1 [Example 8, 2-(2-(difluoromethoxy)-7-methylquinoxalin-5 yl)-4-vinylthiazole] | 100
6 | Cc1cc(-c2nc(C)c(-c3ccn[nH]3)s2)c2ncc(OC(F)F)nc2c1 [Example 9, 2-(2-(difluoromethoxy)-7-methylquinoxalin-5-yl)-4-methyl-5-(1H-pyrazol-5-yl)thiazole] | 5
7 | Cc1cc(-c2nc(C3CC3)cs2)c2ncc(OC(F)F)nc2c1 [Example 10, 4-cyclopropyl-2-(2-(difluoromethoxy)-7-methylquinoxalin-5-yl)thiazole] | 300
8 | Cc1cc(-c2nc(C)c(-c3cc(F)ccc3O)s2)c2ncc(OC(F)F)nc2c1 [Example 11, 2-(2-(2-(difluoromethoxy)-7-methylquinoxalin-5-yl)-4-methylthiazol-5-yl)-4-fluoropheno] | 7.5
9 | Cc1cc(-c2nc(C)c(-c3c(O)cccc3F)s2)c2ncc(OC(F)F)nc2c1 [Example 12, 2-(2-(2-(difluoromethoxy)-7-methylquinoxalin-5-yl)-4-methylthiazol-5-yl)-3-fluoropheno] | 8.1
10 | Cc1cc(-c2ncc(N3CCCCC3)s2)c2ncc(OC(F)F)nc2c1 [Example 13, 2-(2-(difluoromethoxy)-7-methylquinoxalin-5-yl)-5-(piperidin-1-yl)thiazole] | 12
11 | Cc1cc(-c2ncc(-c3cncc(O)c3)s2)c2ncc(OC(F)F)nc2c1 [Example 14, 5-(2-(2-(difluoromethoxy)-7-methylquinoxalin-5-yl)thiazol-5-yl)pyridin-3-ol] | 170
12 | Cc1cc(-c2ncc(-c3ccccc3C(F)(F)F)s2)c2ncc(OC(F)F)nc2c1 [Example 16, 2-(2-(difluoromethoxy)-7-methylquinoxalin-5-yl)-5-(2-(trifluoromethyl)phenyl)thiazole] | 110
13 | Cc1cc(-c2ncc(C3CCCCC3)s2)c2ncc(OC(F)F)nc2c1 [Example 17, 5-cyclohexyl-2-(2-(difluoromethoxy)-7-methylquinoxalin-5-yl)thiazole] | 75
14 | COCc1cnc2c(-c3ncc(-c4ccccc4)s3)cc(C)cc2n1 [Example 18, 2-(2-(methoxymethyl)-7-methylquinoxalin-5-yl)-5-phenylthiazole] | 6.2
15 | Cc1ccc(O)c(-c2cnc(-c3cc(C)cc4nc(OC(F)F)cnc34)s2)c1 [Example 20, 2-(2-(2-(difluoromethoxy)-7-methylquinoxalin-5-yl)thiazol-5-yl)-4-methylphenol] | 31
16 | Cc1cc(-c2ncc(-c3cc(Cl)ccc3O)s2)c2ncc(OC(F)F)nc2c1 [Example 22, 2-(2-(2-(difluoromethoxy)-7-methylquinoxalin-5-yl)thiazol-5-yl)-4-chlorophenol] | 18
17 | Cc1cc(-c2ncc(-c3cccc(Cl)c3O)s2)c2ncc(OC(F)F)nc2c1 [Example 23, 2-(2-(2-(difluoromethoxy)-7-methylquinoxalin-5-yl)thiazol-5-yl)-6-chlorophenol] | 14
18 | Cc1cc(-c2ncc(-c3c(O)cccc3F)s2)c2ncc(OC(F)F)nc2c1 [Example 24, 2-(2-(2-(difluoromethoxy)-7-methylquinoxalin-5-yl)thiazol-5-yl)-3-fluorophenol] | 8.3
19 | Cc1cc(-c2ncc(-c3cc(O)ccc3F)s2)c2ncc(OC(F)F)nc2c1 [Example 25, 3-(2-(2-(difluoromethoxy)-7-methylquinoxalin-5-yl)thiazol-5-yl)-4-fluorophenol] | 15
20 | Cc1cc(-c2ncc(-c3cc(O)ccc3OC(F)(F)F)s2)c2ncc(OC(F)F)nc2c1 [Example 27] | 20
21 | Cc1cc(-c2ncc(-c3ccccc3)s2)c2ncc(OC(F)F)nc2c1 [Example 28, 2-(2-(difluoromethoxy)-7-methylquinoxalin-5-yl)-5-phenyl thiazole] | 43
22 | Cc1cc(-c2ncc(-c3ccccc3O)s2)c2ncc(OC(F)F)nc2c1 [Example 30, 2-(2-(2-(difluoromethoxy)-7-methylquinoxalin-5-yl)thiazol-5-yl)phenol] | 8.8
23 | Cc1cc(-c2nccs2)c2ncc(OC(F)F)nc2c1 [Example 34, 2-(2-(difluoromethoxy)-7-methylquinoxalin-5-yl)thiazole] | 760
24 | Cc1cc(-c2nc(C)cs2)c2ncc(OC(F)F)nc2c1 [Example 36, 2-(2-(difluoromethoxy)-7-methylquinoxalin-5-yl)-4-methylthiazole] | 64
25 | Cc1cc(-c2ncc(-c3cccc4cc[nH]c34)s2)c2ncc(OC(F)F)nc2c1 [Example 37, 2-(2-(difluoromethoxy)-7-methylquinoxalin-5-yl)-5-(1H-indol-7-yl)thiazole] | 60

More lines, in order of falling IC50, values ahead:

Row | IC50 [nM] | SMILES
26 | 2300 | COc1ccc(NC(=O)c2csc(-c3cc(C)cc4nc(OC(F)F)cnc34)n2)cc1 [Example 32, 2-(2-(difluoromethoxy)-7-methylquinoxalin-5-yl)-N-(4-methoxyphenyl)thiazole-4-carboxamide]
27 | 940 | Cc1cc(-c2ccsn2)c2ncc(OC(F)F)nc2c1 [Example 5, 3-(2-(difluoromethoxy)-7-methylquinoxalin-5-yl)isothiazole]
28 | 570 | Cc1cc(-c2nc(C(=O)N3CCC(CO)CC3)cs2)c2ncc(OC(F)F)nc2c1 [Example 33, (2-(2-(difluoromethoxy)-7-methylquinoxalin-5-yl)thiazol-4-yl)(4-(hydroxymethyl)piperidin-1-yl)methanone]
29 | 450 | CCNC(=O)c1cnc(-c2cc(C)cc3nc(OC)cnc23)s1 [Example 31, N-ethyl-2-(2-methoxy-7-methylquinoxalin-5-yl)thiazole-5-carboxamide]
30 | 95 | Cc1cc(-c2ncc(Cc3ccccc3)s2)c2ncc(OC(F)F)nc2c1 [Example 7, 5-benzyl-2-(2-(difluoromethoxy)-7-methylquinoxalin-5-yl)thiazole]
31 | 60 | Cc1cc(-c2ncc(-c3cccnc3)s2)c2ncc(OC(F)F)nc2c1 [Example 29, 2-(2-(difluoromethoxy)-7-methylquinoxalin-5-yl)-5-(pyridin-3-yl)thiazole]
32 | 25 | Cc1cc(-c2nnc(-c3ccccc3)s2)c2ncc(OC(F)F)nc2c1 [Example 35, 2-(2-(difluoromethoxy)-7-methylquinoxalin-5-yl)-5-phenyl-1,3,4-thiadiazole]
33 | 23 | Cc1cc(-c2ncc(-c3cc(O)cc(F)c3)s2)c2ncc(OC(F)F)nc2c1 [Example 26, 3-(2-(2-(difluoromethoxy)-7-methylquinoxalin-5-yl)thiazol-5-yl)-5-fluorophenol]
34 | 8.8 | Cc1cc(-c2ncc(-c3cc(F)ccc3O)s2)c2ncc(OC(F)F)nc2c1 [Example 21, 2-(2-(2-(difluoromethoxy)-7-methylquinoxalin-5-yl)thiazol-5-yl)-4-fluorophenol]
35 | 5.9 | Cc1cc(-c2nc(C)c(-c3ccccc3O)s2)c2ncc(OC(F)F)nc2c1 [Example 15, 2-(2-(2-(difluoromethoxy)-7-methylquinoxalin-5-yl)-4-methylthiazol-5-yl)phenol]
36 | 5.9 | Cc1cc(-c2ncc(-c3cccc(F)c3O)s2)c2ncc(OC(F)F)nc2c1 [Example 19, 2-(2-(2-(difluoromethoxy)-7-methylquinoxalin-5-yl)thiazol-5-yl)-6-fluorophenol]
37 | 1 | Cc1cc(-c2nc(C)c(-c3cccc(O)c3)s2)c2ncc(OC(F)F)nc2c1 [Example 6, 3-(2-(2-(difluoromethoxy)-7-methylquinoxalin-5-yl)-4-methylthiazol-5-yl)phenol]
